Patent US7803826B2, “Imidazolidine derivatives” (Chugai Seiyaku Kabushiki Kaisha, priority 2004, dated 2010)
Like-named read-outs stand apart in the source and are kept apart here.

Key:
human androgen receptor [1] = target: T1, human androgen receptor (Homo sapiens, UniProt P10275); assay: Investigation of agonist effects: androgen receptor reporter gene (MMTV-luciferase) assay in 11A11B2 cells; format: cell-based; conditions: compound concentration showing a transcription activity of 5% (0.1 nmol/L DHT = 100%, assay medium alone = 0%), 48 hours
T1 construct: expressed in transfected cells
T1 sequence (P10275 1-920): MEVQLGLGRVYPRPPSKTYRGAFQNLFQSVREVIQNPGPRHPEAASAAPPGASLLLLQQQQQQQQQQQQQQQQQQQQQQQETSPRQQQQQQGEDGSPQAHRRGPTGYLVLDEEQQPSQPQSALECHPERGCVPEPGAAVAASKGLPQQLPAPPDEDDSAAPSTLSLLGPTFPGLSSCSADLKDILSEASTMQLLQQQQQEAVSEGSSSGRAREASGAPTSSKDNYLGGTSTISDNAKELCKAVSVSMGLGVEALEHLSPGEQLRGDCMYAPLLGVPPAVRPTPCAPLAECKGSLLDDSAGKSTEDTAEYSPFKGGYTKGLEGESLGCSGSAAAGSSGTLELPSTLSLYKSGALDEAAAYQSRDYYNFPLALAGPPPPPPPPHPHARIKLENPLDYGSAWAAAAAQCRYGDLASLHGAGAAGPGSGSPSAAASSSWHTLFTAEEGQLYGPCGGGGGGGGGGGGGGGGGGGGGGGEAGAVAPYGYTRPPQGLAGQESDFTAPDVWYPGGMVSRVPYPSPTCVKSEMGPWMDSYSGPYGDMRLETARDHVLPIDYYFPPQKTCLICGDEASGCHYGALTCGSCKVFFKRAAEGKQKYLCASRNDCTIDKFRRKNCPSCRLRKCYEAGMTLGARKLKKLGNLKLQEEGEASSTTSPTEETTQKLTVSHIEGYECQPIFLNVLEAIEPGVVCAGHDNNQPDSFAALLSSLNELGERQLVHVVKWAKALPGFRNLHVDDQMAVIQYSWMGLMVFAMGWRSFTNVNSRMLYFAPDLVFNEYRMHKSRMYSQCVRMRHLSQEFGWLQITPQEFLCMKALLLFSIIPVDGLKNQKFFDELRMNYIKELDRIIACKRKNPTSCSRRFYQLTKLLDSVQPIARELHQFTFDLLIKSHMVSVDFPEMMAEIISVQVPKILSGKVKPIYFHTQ
Experimental: (§1) HeLa cells (purchased from Dai-Nippon Seiyaku K.K.) were cultured overnight in Dulbecco's Modified Eagle Medium containing no phenol red, but containing 3% charcoal-treated fetal bovine serum (hereafter referred to as DCC-FBS) (this medium is hereafter referred to as phenol-red-free DMEM). An MMTV-Luc-Hyg vector (reporter plasmid with mouse mammary tumor virus long terminal repeat as an androgen response element: vector obtained by substituting the chloramphenicol acetyl transferease gene of a GM-CAT vector (A.T.C.C No. 67282) purchased from the A.T.C.C. with the firefly luciferase gene, and inserting a hygromycin resistance gene as a drug resistance gene), and pSG5-hAR-neo (human androgen receptor expression vector: a vector having an androgen receptor gene under the control of the SV40 promoter, and having a neomycin resistance gene inserted as a drug resistance gene) were transfected into the HeLa cells using an FuGENE™ 6 Transfection Reagent (obtained from Roche).
(§2) A clone in which transcription activity was elevated in a dose-dependent manner by dihydrotestosterone was obtained by culturing the transfected cells in DMEM containing 500 μg/mL neomycin, 300 μg/mL hygromycin and 10% fetal bovine serum (hereafter referred to as FBS). The clone cells thus obtained (11A11B2 cells) were maintained and propagated using DMEM containing 400 μg/mL neomycin, 200 μg/mL hygromycin and 10% FBS, and were propagated using phenol-red-free DMEM containing 10% DCC-FBS three to four days prior to the performance of an androgen receptor reporter gene assay.
The 11A11B2 cells were inoculated in a white clear-bottomed 96-well microplate (COSTAR) so that the cell concentration was 1.0×10^4/well, using phenol-red-free DMEM containing 3% DCC-FBS (hereafter referred to as the assay medium), and were cultured overnight. The assay medium containing the compounds of the examples and compounds of the comparative examples were added so that the final concentrations of the compounds of the examples and compounds of the comparative examples were 1, 10, 100, 1,000 and 10,000 nmol/L (however, in the case of the compounds of Examples 1 and 2, the compounds were added so that the final concentrations were […]), and the cells were cultured for 48 hours, after which the transcription activity value was measured. The transcription activity was measured using a Bright-Glo™ Luciferase Assay System (Promega).
(§3) The transcription activity rates of the compounds of the examples were calculated from the transcription activity measured by the abovementioned method, with the transcription activity value obtained at 0.1 nmol/L DHT taken as 100%, and the transcription activity value in the case of the assay medium alone taken as 0%. The compound concentration showing a transcription activity of 5% (EC5 value) was calculated from a linear equation for two points on either side of 5%.

androgen receptor = androgen receptor (Homo sapiens, UniProt P10275); conditions: at a concentration of 10 μmol/L; cited from earlier work
[2] = prostate cancer patients treated with flutamide; cited from earlier work
human androgen receptor [3] = target: T1, human androgen receptor; assay: Investigation of antagonist effects: androgen receptor reporter gene (MMTV-luciferase) assay in 11A11B2 cells with 0.1 nmol/L DHT; format: cell-based
Experimental: as §1, §2
After culturing for 48 hours, the transcription activity values were measured. The transcription activity was measured using a Bright-Glo™ Luciferase Assay System (Promega).
as §3, with “0%.” for “0%. The compound concentration showing a transcription activity of 5% (EC5 value) was calculated from a linear equation for two points on either side of 5%.”
Accordingly, the value obtained by subtracting the transcription activity rate of Test Example 1 (Investigation of Agonist Activity) from the transcription activity rate of Test Example 2 (Investigation of Antagonist Activity) was used to calculate the compound concentration at which a transcription activity of 50% was shown (IC50 value). The IC50 value was calculated from a linear equation for two points on either side of 50%.

castrated rats = conditions: continuously administered for two weeks; cited from earlier work
[4] = 11A11B2 cells, 0.1 nmol/L DHT, 48 hours, agonist transcription activity rate of Test Example 1 subtracted, read-out: IC50

Row | SMILES | EC5 (human androgen receptor [1]) [µM] | IC50 (human androgen receptor [3]; [4]) [nM] | further results
1 | CN1C(=S)N(c2ccc(C#N)c(C(F)(F)F)c2)C(=O)C1(C)C [Comparative Example 1, 4-(5-oxo-2-thioxo-3,4,4-trimethyl-1-imidazolidinyl)-2-trifluoromethylbenzonitrile, reference compound] | 8e-05 |  | 
2 | CC(=O)NCCN1C(=S)N(c2ccc(C#N)c(C(F)(F)F)c2)C(=O)C1(C)C [Comparative Example 2, 4-[3′-(2″-N-acetylaminoethyl)-4′,4′-dimethyl-5′-oxo-2′-thioxo-1′-imidazolidinyl]-2-trifluoromethylbenzonitrile, reference compound] | 3 |  | 
3 | CC(C)(O)C(=O)Nc1ccc([N+](=O)[O-])c(C(F)(F)F)c1 [Comparative Example 4, hydroxyflutamide] | 0.01 |  | androgen receptor transcription activity (androgen receptor): increase; hydroxyflutamide concentration in the blood [2]: several
4 | CC1(C)C(=O)N(c2ccc(C#N)c(Cl)c2)C(=S)N1CCCS(N)(=O)=O [Example 1, 3-[3-(3-chloro-4-cyanophenyl)-5,5-dimethyl-4-oxo-2-thioxoimidazolidin-1-yl]propane-1-sulfonic acid amide] | >10 |  | IC50 (human androgen receptor [3]): 200 nM
5 | COc1cc(N2C(=O)C(C)(C)N(CCCS(N)(=O)=O)C2=S)ccc1C#N [Example 2, 3-[3-(4-cyano-3-methoxyphenyl)-5,5-dimethyl-4-oxo-2-thioxoimidazolidin-1-yl]propane-1-sulfonic acid amide] | >10 | 300 | 
6 | CC1(C)C(=O)N(c2ccc(C#N)c(Cl)c2)C(=S)N1CCCCS(N)(=O)=O [Example 26, 4-[3-(3-chloro-4-cyanophenyl)-5,5-dimethyl-4-oxo-2-thioxoimidazolidin-1-yl]butane-1-sulfonic acid amide] | >10 | 900 | 
7 | CC1(C)C(=O)N(c2ccc(C#N)c(Cl)c2)C(=S)N1CCCCCS(N)(=O)=O [Example 27, 5-[3-(3-chloro-4-cyanophenyl)-5,5-dimethyl-4-oxo-2-thioxoimidazolidin-1-yl]pentane-1-sulfonic acid amide] | >10 | 400 | 
8 | CC1(C)C(=O)N(c2ccc(C#N)c(Cl)c2)C(=S)N1CCS(N)(=O)=O [Example 28, 2-[3-(3-chloro-4-cyanophenyl)-5,5-dimethyl-4-oxo-2-thioxoimidazolidin-1-yl]ethane-1-sulfonic acid amide] | >10 | 400 | 
9 | CC(=O)O[C@]1(C(C)=O)CC[C@H]2[C@@H]3C=C(Cl)C4=CC(=O)CC[C@]4(C)[C@H]3CC[C@@]21C [chlormadinone acetate] |  |  | weight of the prostate gland (castrated rats): increase
10 | CC(=O)O[C@]1(C(C)=O)CC[C@H]2[C@@H]3C=C(Cl)C4=CC(=O)[C@@H]5C[C@@H]5[C@]4(C)[C@H]3CC[C@@]21C [cyproterone acetate] |  |  | weight of the prostate gland (castrated rats): increase
